Measurements as given in PMC5413848, “Optimization of intestinal microsomal preparation in the rat: A systematic approach to assess the influence of various methodologies on metabolic activity and scaling factors” (Biopharmaceutics & Drug Disposition, 2017).
Read-outs that look alike come from different tables or passages of the source.

How the values were obtained:
[1] = Nonspecific protein binding in rat intestinal microsomes (96-well micro-equilibrium dialysis)
Experimental: Nonspecific protein binding was determined in microsomes (1 mg/ml) using high throughput 96‐well micro‐equilibrium dialysis methodology (HTDialysis, LLC, Gales Ferry, CT, USA). These experiments used dialysis membrane strips with 12–14 kDa molecular mass cut‐off (HTDialysis). The microsomes were constituted in 0.1 M phosphate buffer (pH 7.4). The final concentrations of the test compounds was 1 μM. Microsomes containing the test compound were aliquoted into donor wells in triplicate, and buffer placed in the acceptor wells. The plate was incubated at 37°C and left to equilibrate on a plate shaker (450 rpm) for 4 h. Samples from both the acceptor and donor sides of the membrane were then transferred to 96‐well plates and quenched in acetonitrile containing internal standard (AZ1). The same sample preparation and LC–MS/MS methodology was used as described for the microsomal incubations. Compound MS transitions and retention times are reported in Supplemental material Table 3. Fuinc was calculated as the ratio of acceptor to donor both normalized for internal standard as described previously 41. Correction for protein binding for depletion experiments undertaken at 0.5 mg/ml were made using Equation (4).
(4) fumic,2=1/[P]mic,2/Pmic,1×1−fumic,1/fumic,1+1
where mic,1 denotes 1 mg/ml and mic,2 is 0.5 mg/ml.

[2] = In vitro-in vivo extrapolation of rat intestinal unbound intrinsic clearance (CL int,u,gut); type: in vitro ADME; conditions: for CL int,u,gut, Combined in-house pools: mean of pool 1 and pool 2 CL int,u and scaling factors; for CL int,u,gut, Pool 1 Mean: pool 1, pool specific scaling factors; for CL int,u,gut, Pool 1 Mean / CL int,u,gut, Pool 2 Mean: threshold 0.01 l/h; for CL int,u,gut, Pool 2 Mean: pool 2, pool specific scaling factors
Description: The CL int,u values were scaled to give CL int,u,gut using scaling factors for the corresponding microsomal pool (Eq. (5)). The use of scalars from the mean of both pools was also investigated, and was also used for scaling of commercial microsome CL int,u data.
(5) CLint,u,G=CLuint⋅MPPGI⋅Intestine Segment Weight

in vitro [3] = conditions: for microsomal CLint at 1 μM: Han-Wistar, rat, in-house combined cofactors
Experimental: (§1) Microsomes prepared previously via the optimized method (preparation method 8) were combined to form pool 1 (n = 9 rats). A second set of three preparations was combined to form pool 2 (n = 9 rats). Intestinal microsomes were also prepared from intestinal tissue flash‐frozen in tubes on arrival in the laboratory and kept at −80°C until thawing on ice on the morning of preparation, (n = 3 occasions of n = 3 samples). In addition, for comparative purposes microsomes were also prepared from scraped intestinal tissues. Microsomes were prepared after cutting along the length of intestine and gently scraping the intestinal epithelial with a glass microscope slide (n = 1 occasion, n = 3 samples). Commercially available pooled intestinal microsomes were also used as a comparator to those produced in‐house. […] The microsomes were stored at −80°C prior to experiments.
The microsomes prepared from the final optimized preparation method (method 8) were measured for CYP content on the day of preparation prior to storage. These microsomes (n = 3 samples prepared on n = 3 separate occasions) were subsequently thawed on ice and pooled for pool 1. The pool 1 microsomes were then assayed for testosterone and 4‐NP metabolite formation. Additional intestinal microsomes were created using the identical methodology with the same number of rat intestinal samples (n = 3 samples prepared on n = 3 occasions) and assayed for testosterone and 4‐NP metabolite formation as well as for CYP content on the day of preparation before storage. The microsomes from this second set of preparations were then thawed and pooled to form pool 2.
(§2) Midazolam and 7‐hydroxycoumarin were both incubated at 1 mg/ml and 0.5 mg/ml. The microsomes were incubated on ice with alamethacin (50 μg/mg) for 15 min. […] The samples were quenched with ice cold acetonitrile (3:1 quench to sample) containing the internal standard (AZ1). The total incubation time was 40 min. Quenched samples were stored overnight at −20°C. The following day, the samples were diluted with 200 μl UPH2O, and spun at 3000 rpm (Sorvall legend RT centrifuge) for 15 min, and 200 μl of supernatant taken for analysis.

in vitro [4] = conditions: for microsomal CLint at 1 μM: male, Han Wistar, rat, pH 7.4, CL int,u, Commercial Han Wistar pool
Experimental: as §1, §2

[5] = rat intestinal microsomes 1 mg/ml, compound 1 μM
[6] = microsomes, pH 7.4, CL int,u, Pool 1
[7] = microsomes, pH 7.4, CL int,u, Pool 2
[8] = commercial Han Wistar microsomes, individual cofactors
[9] = CYP cofactors, 1 mg/ml, 1 μM compound, CYP cofactors only
[10] = Combined cofactors, 1 mg/ml, 1 μM compound, combined CYP and UGT cofactors
[11] = UGT cofactors, 1 mg/ml, 1 μM compound, UGT cofactors only

O=C(O)Cc1ccccc1Nc1c(Cl)cccc1Cl [Diclofenac]
fuinc ([1]; rat, 4 h, 1 μM, pH 7.4): 0.98

CCC(C)(C)C(=O)O[C@H]1C[C@@H](C)C=C2C=C[C@H](C)[C@H](CC[C@@H]3C[C@@H](O)CC(=O)O3)[C@H]21 [Simvastatin]
fuinc [1, 5]: 0.93
CL int,u,gut, Combined in-house pools [2]: 1.38 L/h
CL int,u,gut, Pool 1 Mean [2]: 1.08 L/h
CL int,u,gut, Pool 2 Mean [2]: 1.57 L/h

COc1ccc([C@@H]2Sc3ccccc3N(CCN(C)C)C(=O)[C@@H]2OC(C)=O)cc1 [Diltiazem]
fuinc ([1]; rat, 4 h, 1 μM, pH 7.4): 0.85
microsomal CLint at 1 μM (in vitro [3]; [6]): 21.8 µL/min/mg
microsomal CLint at 1 μM (in vitro [3]; [7]): 26.7 µL/min/mg

CC(C)Oc1ccc2c(=O)c(-c3ccccc3)coc2c1 [Ipriflavone]
Predicted protein binding at 0.5 mg/ml from data measured at 1 mg/ml ([1]; rat, 4 h, 1 μM, pH 7.4): 0.43
fuinc ([1]; rat, 4 h, 1 μM, pH 7.4): 0.28
CL int,u,gut, Mean Han Wistar commercial microsomes [2]: 0.05 L/h
microsomal CLint at 1 μM (in vitro [3]; [6]): 495 µL/min/mg
microsomal CLint at 1 μM (in vitro [3]; [7]): 416 µL/min/mg
Main route of elimination (CYP vs UGT cofactors) (in vitro [4]): CYP mediated metabolism
microsomal CLint at 1 μM (in vitro [4]; microsomes, CYP cofactors): 59.1 µL/min/mg
microsomal CLint at 1 μM (in vitro [4]; microsomes, Combined cofactors): 72 µL/min/mg
microsomal CLint at 1 μM (in vitro [4]; microsomes, UGT cofactors): 7.3 µL/min/mg

COc1ccc2c(c1)c(CC(=O)O)c(C)n2C(=O)c1ccc(Cl)cc1 [Indomethacin]
fuinc ([1]; rat, 4 h, 1 μM, pH 7.4): 0.88
CL int,u,gut, Mean Han Wistar commercial microsomes [2]: 0.22 L/h
microsomal CLint at 1 μM (in vitro [3]; [6]): 48.9 µL/min/mg
microsomal CLint at 1 μM (in vitro [3]; [7]): 62.4 µL/min/mg

O=C1CC2(CCCC2)CC(=O)N1CCCCN1CCN(c2ncccn2)CC1 [Buspirone]
microsomal CLint at 1 μM (in vitro [3]; microsomes, pH 7.4, CL int,u, Pool 1, pool 1, 1 mg/ml, 1 μM compound, CYP and UGT cofactors): 3.2 µL/min/mg
microsomal CLint at 1 μM (in vitro [3]; microsomes, pH 7.4, CL int,u, Pool 2, pool 2, 1 mg/ml, 1 μM compound, CYP and UGT cofactors): 1.4 µL/min/mg

C=CC[C@@H]1/C=C(\C)C[C@H](C)C[C@H](OC)[C@H]2O[C@@](O)(C(=O)C(=O)N3CCCC[C@H]3C(=O)O[C@H](/C(C)=C/[C@@H]3CC[C@@H](O)[C@H](OC)C3)[C@H](C)[C@@H](O)CC1=O)[C@H](C)C[C@@H]2OC [Tacrolimus]
fuinc [1, 5]: 0.32
Predicted protein binding at 0.5 mg/ml from data measured at 1 mg/ml ([1]; rat, 4 h, 1 μM, pH 7.4): 0.48
CL int,u,gut, Combined in-house pools [2]: 59.22 L/h
CL int,u,gut, Pool 1 Mean [2]: 37.77 L/h
CL int,u,gut, Pool 2 Mean [2]: 77.09 L/h
microsomal CLint at 1 μM (in vitro [3]; rat intestinal microsomes, in-house pool 1, pH 7.4, CL int,u, Pool 1, pool 1, incubated at 0.5 mg/ml (footnote b), 1 μM compound): 465 µL/min/mg
microsomal CLint at 1 μM (in vitro [3]; rat intestinal microsomes, in-house pool 2, pH 7.4, CL int,u, Pool 2, pool 2, incubated at 0.5 mg/ml (footnote b), 1 μM compound): 413 µL/min/mg

CCCCc1nc(Cl)c(CO)n1Cc1ccc(-c2ccccc2-c2nn[nH]n2)cc1 [Losartan]
fuinc ([1]; rat, 4 h, 1 μM, pH 7.4): 0.87
CL int,u,gut, Mean Han Wistar commercial microsomes [2]: 0.04 L/h
microsomal CLint at 1 μM (in vitro [3]; [6]): 34.8 µL/min/mg
microsomal CLint at 1 μM (in vitro [3]; [7]): 14.8 µL/min/mg
Main route of elimination (CYP vs UGT cofactors) (in vitro [4]; [8]): glucuronidation
microsomal CLint at 1 μM (in vitro [4]; [9]): 0.1 µL/min/mg
microsomal CLint at 1 μM (in vitro [4]; [10]): 10 µL/min/mg
microsomal CLint at 1 μM (in vitro [4]; [11]): 9 µL/min/mg

CCCCC1=NC2(CCCC2)C(=O)N1Cc1ccc(-c2ccccc2-c2nnn[nH]2)cc1 [Irbesartan]
fuinc ([1]; rat, 4 h, 1 μM, pH 7.4): 0.79
CL int,u,gut, Mean Han Wistar commercial microsomes [2]: 0.03 L/h
microsomal CLint at 1 μM (in vitro [3]; [6]): 31.9 µL/min/mg
microsomal CLint at 1 μM (in vitro [3]; [7]): 35.9 µL/min/mg
Main route of elimination (CYP vs UGT cofactors) (in vitro [4]; [8]): glucuronidation
microsomal CLint at 1 μM (in vitro [4]; [9]): 1.5 µL/min/mg
microsomal CLint at 1 μM (in vitro [4]; [10]): 15.2 µL/min/mg
microsomal CLint at 1 μM (in vitro [4]; [11]): 9.4 µL/min/mg

CCCCNc1cc(C(=O)O)cc(S(N)(=O)=O)c1Oc1ccccc1 [Bumetanide]
fuinc ([1]; rat, 4 h, 1 μM, pH 7.4): 0.92

O=c1ccc2ccc(O)cc2o1 [7‐Hydroxycoumarin]
Predicted protein binding at 0.5 mg/ml from data measured at 1 mg/ml [1]: 1.00
Microsomal binding ([1]; rat, 4 h, 1 μM, pH 7.4): 0%
fuinc ([1]; rat, 4 h, 1 μM, pH 7.4): 1.00
CL int,u,gut, Mean Han Wistar commercial microsomes [2]: 0.07 L/h
microsomal CLint at 1 μM (in vitro [3]; [6]): 196 µL/min/mg
microsomal CLint at 1 μM (in vitro [3]; [7]): 264 µL/min/mg
Main route of elimination (CYP vs UGT cofactors) (in vitro [4]; [8]): glucuronidation
microsomal CLint at 1 μM (in vitro [4]; [9]): 0.9 µL/min/mg
microsomal CLint at 1 μM (in vitro [4]; [10]): 272 µL/min/mg
microsomal CLint at 1 μM (in vitro [4]; [11]): 327 µL/min/mg

O=C(c1ccc(OCCN2CCCCC2)cc1)c1c(-c2ccc(O)cc2)sc2cc(O)ccc12 [Raloxifene]
fuinc ([1]; rat, 4 h, 1 μM, pH 7.4): 0.06

CC(C)NCC(O)COc1ccc(COCCOC(C)C)cc1 (centres unmarked) [Bisporolol]
fuinc [1, 5]: 0.89
CL int,u,gut, Combined in-house pools [2]: 0.02 L/h
CL int,u,gut, Pool 1 Mean [2]: 0.01 L/h
CL int,u,gut, Pool 2 Mean [2]: 0.03 L/h
CL int,u, in-house combined cofactors, Pool 1 (in vitro [3]; pool 1, 1 mg/ml, 1 μM compound, CYP and UGT cofactors): 5.4 µL/min/mg
CL int,u, in-house combined cofactors, Pool 2 (in vitro [3]; pool 2, 1 mg/ml, 1 μM compound, CYP and UGT cofactors): < 0.1 µL/min/mg

CN1CCN(CC(=O)N2c3ccccc3C(=O)Nc3cccnc32)CC1 [Pirenzepine]
Microsomal binding ([1]; rat, 4 h, 1 μM, pH 7.4): 0%
fuinc ([1]; rat, 4 h, 1 μM, pH 7.4): 1.00
CL int,u,gut, Mean Han Wistar commercial microsomes [2]: 3.21 L/h
microsomal CLint at 1 μM (in vitro [3]; [6]): 3.9 µL/min/mg
microsomal CLint at 1 μM (in vitro [3]; [7]): 2.7 µL/min/mg

CCCc1nn(C)c2c(=O)[nH]c(-c3cc(S(=O)(=O)N4CCN(C)CC4)ccc3OCC)nc12 [Sildenafil]
fuinc ([1]; rat, 4 h, 1 μM, pH 7.4): 0.73
microsomal CLint at 1 μM (in vitro [3]; [6]): 23.8 µL/min/mg
microsomal CLint at 1 μM (in vitro [3]; [7]): 18.4 µL/min/mg

COc1ccc2[nH]c([S+]([O-])Cc3ncc(C)c(OC)c3C)nc2c1 (centres unmarked) [Omeprazole]
fuinc [1, 5]: 0.90
CL int,u,gut, Combined in-house pools [2]: 0.01 L/h
CL int,u,gut, Pool 1 Mean [2]: 0.01 L/h
CL int,u,gut, Pool 2 Mean [2]: 0.01 L/h
microsomal CLint at 1 μM (in vitro [3]; rat intestinal microsomes, in-house pool 1, pH 7.4, CL int,u, Pool 1, pool 1, 1 mg/ml, 1 μM compound, CYP and UGT cofactors): 7.6 µL/min/mg
